In one assay the test system is collagène de type 1. The experiment in a line: Quantitative RT-PCR, osteoblast differentiation marker: type 1 collagen. The format is cell-based, rats Wistar. The conditions noted are these: Rattus norvegicus; for activation at 5 µM: AA+βGP+Fisétine 5µM. The text has this:
(§1) Les préostéoblastes primaires ont été isolés à partir de la calotte crânienne de rats Wistar nouveaux-nés par digestion enzymatique comme précédemment décrit [Declercq, H., Van den Vreken, N., De Maeyer, E., Verbeeck, R., Schacht, E., De Ridder, L., and Cornelissen, M. (2004). Isolation, proliferation and differentiation of osteoblastic cells to study cell/biomaterial interactions: comparison of different isolation techniques and source. Biomaterials 25, 757-68.]. Les précurseurs d'ostéoclastes RAW264.7 ont été obtenus auprès de l'ATCC (Manassas, VA, USA). Les préostéoblastes et les RAW264.7 ont été cultivés dans du milieu α-MEM (Invitrogen, Carlsbad, CA, USA) supplémenté avec 10% de SVF décomplémenté et de 100 unités/ml de pénicilline-streptomycine.
L'extraction des ARN totaux (cellules et fémurs) a été effectuée en utilisant le réactif TRIzol, la transcription inverse (RT) a été réalisée à l'aide du kit de synthèse d'ADNc Dynamo (Thermo Scientific, Waltham, MA, USA) et l'analyse PCR en temps réel a été réalisée avec le Mastercycler ep Realplex2 (Eppendorf, Hambourg, Allemagne). Toutes les valeurs ont été normalisées par la GAPDH. Les séquences des oligos utilisés sont : ALP F 5'-GGCCAGCTACACCACAACA-3' / ALP R 5'-[…] -3' / OCN F 5'-AGACTCCGGCGCTACCTT -3' / OCN R 5'-[…]-3'/ COL1 F 5'-[…]-3' / COL1 R 5'-[…]-3' / GAPDH F 5'-[…]-3' / GAPDH R 5'-[…]-3'

The next assay relates to ostéocalcine sérique. The experiment in a line: Ovariectomy-induced bone loss: serum osteocalcin (ELISA). The format is in vivo, souris C57BL/6J. The settings on record: daily Fisétine 25mg/kg by gavage. As for the experimental part:
Tout au long de l'étude, les animaux ont été logés dans un environnement contrôlé (12:12 h cycle lumière-obscurité, 20-22 ° C, 50-60% d'humidité relative, 1 souris par cage en plastique avec un accès libre à l'eau. Les souris C57BL/6J ont été livrées 2 semaines avant l'étude pour l'acclimatation à notre environnement sous régime standard semi-purifié. Pour toutes les expériences, les souris de 8 semaines (n=12/groupe) ont été gavées avec le véhicule (1% d'éthanol, 0,2% hydroxypropylcellulose dans de l'eau distillée) ou avec la fisétine (5 à 50 mg/kg dans le véhicule) pendant une semaine. Ensuite, pour l'expérience OVX, les souris ont été pseudo-opérées ou ovariectomisées bilatéralement et ont reçu quotidiennement par gavage le véhicule ou la fisétine pendant 4 semaines. A la fin de l'expérimentation, le sérum, les cornes utérines, les tibias et les fémurs ont été recueillis pour analyse. Pour l'expérience de perte osseuse induite par LPS, le véhicule (PBS) ou le LPS (sérotype 026: B6, 25mg/kg) ont été injectés par voie sous-cutanée au niveau de la calotte crânienne, une fois par semaine pendant 3 semaines sous anesthésie. Durant ces 3 semaines, les souris ont reçu soit le véhicule (1% d'éthanol, 0,2% hydroxypropylcellulose dans de l'eau distillée) soit la fisétine quotidiennement par gavage. […]
(In general: An ELISA detects its analyte on a solid surface through an enzyme-linked reagent.)

Assay [1] deals with préostéoblastes primaires. In words: ALP activity measurement in differentiating osteoblasts. The format is cell-based, rats Wistar. The settings on record: Rattus norvegicus, Osteoblast, read-out: activité ALP par rapport à la condition « AA+βGP seuls ».
Source text: as §1
Les préostéoblastes primaires ont été ensemencés à 3500 cellules par puits dans des plaques 96 puits traitées au collagène. Trente-six heures plus tard, les cellules ont été prétraitées avec du DMSO comme témoin ou de la fisétine (1 à 5 µM) pendant 12 heures, puis induites à se différentier avec 25 µg/ml d'acide ascorbique et 5 mM de bêta-glycérophosphate en présence de DMSO ou de fisétine (1 à 5 µM). L'activité enzymatique ALP a été mesurée en cinétique après 0, 5, 7 et 12 jours de traitement avec un changement de milieux tous les 2 jours. Les cellules ont été lysées par des cycles de gel-dégel et les lysats ont subi une homogénéisation dans 200 µl de tampon chlorure de magnésium hexahydrate, di-éthanoamine à un pH de 9,8. Les lysats cellulaires (10 µl) ont été ajoutés à 200 µl de solution de p-nitrophényl phosphate (16,2 mM) et l'absorbance a été mesurée en utilisant un lecteur de microplaques à 405 nm toutes les 90 seconds pendant 30min. Pour chaque échantillon, la concentration de protéines a été analysée pour exprimer les résultats sous forme de µmol de p-nitrophenol/heure/mg de protéines.

Where two headings read alike, the source gives them in different places.

Take `O=c1c(O)c(-c2ccc(O)c(O)c2)oc2cc(O)ccc12` [Fisétine, 3,3',4',7-tétrahydroxyflavone]: the activation at 1 µM was 34% in the assay with collagène de type 1 (168 h, AA+βGP+Fisétine 1 µM, J7, read-out: expression du collagène de type 1 par rapport à la condition « AA+βGP seuls »); 60% with collagène de type 1 (336 h, AA+βGP+Fisétine 1µM, J14, read-out: expression du collagène de type 1 par rapport à la condition « AA+βGP seuls »); 32% in assay [1] (AA+βGP+Fisétine 1 µM). For the same compound, the activation at 5 µM with collagène de type 1 (168 h, J7, read-out: expression du collagène de type 1 par rapport à la condition « AA+βGP seuls ») came to 80%; with collagène de type 1 (336 h, J14, read-out: expression du collagène de type 1 par rapport à la condition « AA+βGP seuls ») it was 138%; in assay [1] (AA+βGP+Fisétine 5µM) it was 87%. Further, the “taux sérique d'ostéocalcine par rapport à la condition témoin « SH »” value with ostéocalcine sérique is recorded as “+61%”. For the same compound, the activation at 2.5 µM in assay [1] (AA+βGP+Fisétine 2,5µM) amounted to 63%.
